Source: US20260174875A1 (Novo Nordisk A/S, priority 2023, published 2026)
Numbered stars: 1 amine (or outer) side, 2 acyl side, 3 side chain; on linkers, the order of the positions; unused ones are H or OH. Square brackets hold non-standard residues; d marks the D form. Side chains are listed from the residue outwards. * marks the point of attachment. C18 diacid = O=C(O)CCCCCCCCCCCCCCCCC(=O)*; γGlu = O=C(O)[C@H](CCC(=O)[*:2])N[*:1]; AEEA = NCCOCCOCC(=O)O; Aib = CC(C)(N)C(=O)O

What follows are substances tested against T1, human GLP-1 receptor (hGLP-1R) (Homo sapiens, UniProt P43220) (assay: GLP-1 receptor assay, method A (CRE-luciferase reporter, BHK cells)). Conditions: method A, absence of HSA; read-out: hGLP-1R Potency, no HSA, EC50.
T1 construct: expressed in transfected cells
T1 sequence (P43220 24-463): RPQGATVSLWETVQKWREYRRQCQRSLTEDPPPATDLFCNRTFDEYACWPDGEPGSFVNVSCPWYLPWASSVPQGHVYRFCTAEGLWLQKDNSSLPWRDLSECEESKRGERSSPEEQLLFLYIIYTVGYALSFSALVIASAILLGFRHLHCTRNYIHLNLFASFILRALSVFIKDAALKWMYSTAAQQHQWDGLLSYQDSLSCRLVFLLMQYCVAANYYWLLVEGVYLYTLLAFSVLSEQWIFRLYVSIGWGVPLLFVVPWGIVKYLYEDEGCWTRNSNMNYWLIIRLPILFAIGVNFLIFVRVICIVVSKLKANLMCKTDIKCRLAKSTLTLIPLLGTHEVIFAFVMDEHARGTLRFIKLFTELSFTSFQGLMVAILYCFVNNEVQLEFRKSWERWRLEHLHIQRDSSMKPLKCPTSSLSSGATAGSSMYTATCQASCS
Assay type: cell-based
Procedure: (§1) To assess how the activation of the receptors is potentially influenced by the presence of human serum albumin (HSA), the in vitro assays were performed in the absence of HSA and presence of 1% (w/v) HSA.
Cells at approximately 80-90% confluence were washed once in PBS (Gibco 14190-094) and loosened from the cell flasks with Versene (Gibco, 15040-033). […] Cells were aliquoted and stored at −180° C. until use.
(§2) The assay buffer consisted of DMEM without phenol red (Gibco, 11880-028) supplemented with 1× GlutaMAX (Gibco, 35050-038), 10 mM HEPES (Gibco, 15630-056), 1% (w/v) ovalbumin (Sigma, A5503) and 0.1% (v/v) Pluronic F-68 (Gibco, 24040-032) either with HSA or without HSA (Sigma, A9511).
Frozen stocks of hGLP-1R BHK CRE-Luc cells were thawed in a 37° C. water bath, washed once in PBS (Gibco 14190-094) and diluted to 1.5×10^6 (1.5E+6) cells/mL in assay buffer with or without 2% (w/v) HSA (Sigma, A9511). […] The assay plates were incubated for 3 hours at 37° C. in 5% CO2, left at room temperature for 5 minutes after which 100 μL steadylite Plus™ (PerkinElmer/Revvity, 6066759) was added to each well. Plates were sealed and incubated at room temperature with gentle shaking for 30 minutes while protected from light. Luminescence was detected on a luminescence plate reader e.g., a Synergy 2 (BioTek).
“Y[Aib]EGTFTSDYSILLEEQAAREFIEWLLAGGPSK([AEEA-AEEA-γGlu-C18 diacid])GEASELSTAALGRLSAELHYLATLPRTETGSGSP-NH2 [Compound 29]” was tested, and the EC50 was 27.1 pM. “Y[Aib]EGTFTSDYSILLEEQAAREFIEWLLAGGPSK([AEEA-AEEA-γGlu-C18 diacid])GEASELSTAQLGRLSAELHRLATLPRTETGSGSP-NH2 [Compound 27]” gave an EC50 of 26.2 pM. “Y[Aib]EGTFTSDYSILLEEQAAREFIEWLLAGGPSK([AEEA-AEEA-γGlu-C18 diacid])GEASHLSTAQTQRLSAELHELATLPRTETGSGSP-NH2 [Compound 34]” was tested, and the EC50 was 21.7 pM. Work on “Y[Aib]EGTFTSDYSILLEEQAAREFIEWLLAGGPSK([AEEA-AEEA-γGlu-C18 diacid])GGGGEGGGEGEASHLSTAQTQRLSAELHELATLPRTETGSGSP-NH2 [Compound 40]” yielded an EC50 of 23.3 pM.

What follows are substances tested against T2, human GIP receptor (hGIPR) (Homo sapiens, UniProt P48546) (assay: GIP receptor assay, method A (CRE-luciferase reporter, BHK cells)). Conditions: method A, absence of HSA; read-out: hGIPR Potency, no HSA, EC50.
T2 construct: expressed in transfected cells
T2 sequence (P48546 22-466): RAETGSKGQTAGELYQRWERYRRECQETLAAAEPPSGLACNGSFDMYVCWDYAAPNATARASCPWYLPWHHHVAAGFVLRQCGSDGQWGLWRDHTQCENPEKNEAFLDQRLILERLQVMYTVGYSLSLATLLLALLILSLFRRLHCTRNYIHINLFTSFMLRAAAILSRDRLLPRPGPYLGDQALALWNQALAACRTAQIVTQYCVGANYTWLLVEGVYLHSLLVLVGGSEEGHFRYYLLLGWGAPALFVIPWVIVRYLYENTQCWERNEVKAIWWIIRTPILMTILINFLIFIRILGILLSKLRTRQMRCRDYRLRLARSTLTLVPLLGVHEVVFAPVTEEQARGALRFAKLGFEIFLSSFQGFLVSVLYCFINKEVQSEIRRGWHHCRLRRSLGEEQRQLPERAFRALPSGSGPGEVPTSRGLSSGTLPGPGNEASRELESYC
Assay type: cell-based
Procedure: To assess how the activation of the receptors is potentially influenced by the presence of human serum albumin (HSA), the in vitro assays were performed in the absence of HSA and presence of 1% (w/v) HSA. Unless stated otherwise the reference to the “GIP receptor assay as described in Example 4” throughout the specification shall refer to the described herein assay procedure method A (hGIPR assay) in the absence of HSA.
Activation of the human GIP receptor leads to increased intra-cellular concentrations of cyclic AMP (cAMP) and the consequent transcription activation from promoters containing multiple copies of the cAMP response element (CRE). It is thus possible to measure GIP receptor activity using a CRE-luciferase reporter gene introduced into Baby Hamster Kidney (BHK) cells co-expressing the human GIP receptor.
Cells at about 80-90% confluency were washed once with PBS (Gibco 14190-094) and detached from the cell flasks with Versene (Gibco, 15040-066). After centrifugation, the cells were counted, resuspended and diluted to approximately 1.5-3.0×10^6 (1.5E+6 to 3.0E+6) cells/mL in Recovery Cell Culture Freezing Medium (Gibco, 12648-010) and stored at −180° C. in suitable aliquots until use.
as §2
On the day before the assay hGIPR BHK Cre-Luc cells were thawed and plated out in 96 well Culture Plates (PerkinElmer/Revvity, 6005680) at 5.0×10^3 (5.0E+3) cells/well in growth medium as described above. The plates were then incubated for 21-23 hours at 37° C. with 5% CO2. On the day of the assay GLP-1-/GIP-/amylin-receptor tri-agonists or reference compounds were diluted in assay buffer using a 7-point, 10-fold titration plus a blank (absence of compound). Each compound was diluted and tested in duplicates in each experiment. In the plates containing the cells the growth medium was removed, and cells were washed twice with 100 μL PBS (Gibco 14190-094). 50 μL of the test compound dilutions were added to the plates containing cells preceded by 50 μL assay buffer with or without 2% (w/v) HSA (Sigma, A9511). The cell plates were incubated for 3 hours in a 5% CO2 incubator at 37° C. The plates were then transferred to room temperature followed by addition of 100 μL steadylite Plus™ (PerkinElmer/Revvity, 6066759). The plates were sealed and shaken for 30 minutes at room temperature while protected from light. Finally, luminescence (as an indicator of receptor activation) was measured on a Mithras reader (Berthold Technologies, DE). The EC50-values [pM] were calculated by non-linear curve fitting applying a four-parameter logistic model (Hill slope=“shared value for all datasets”) using GraphPad Prism (GraphPad Software, Boston, MA, USA).
For “Y[Aib]EGTFTSDYSILLEEQAAREFIEWLLAGGPSK([AEEA-AEEA-γGlu-C18 diacid])GEASELSTAALGRLSAELHYLATLPRTETGSGSP-NH2 [Compound 29]”, the EC50 was 2.62 pM. For “Y[Aib]EGTFTSDYSILLEEQAAREFIEWLLAGGPSK([AEEA-AEEA-γGlu-C18 diacid])GEASELSTAQLGRLSAELHRLATLPRTETGSGSP-NH2 [Compound 27]”, the EC50 was 2.11 pM. With “Y[Aib]EGTFTSDYSILLEEQAAREFIEWLLAGGPSK([AEEA-AEEA-γGlu-C18 diacid])GEASHLSTAQTQRLSAELHELATLPRTETGSGSP-NH2 [Compound 34]” the EC50 was 1.7 pM. In the case of “Y[Aib]EGTFTSDYSILLEEQAAREFIEWLLAGGPSK([AEEA-AEEA-γGlu-C18 diacid])GGGGEGGGEGEASHLSTAQTQRLSAELHELATLPRTETGSGSP-NH2 [Compound 40]”, the EC50 is reported as 1.63 pM.

These substances were tested against T3, human amylin receptor (hAMYR3) (Homo sapiens, UniProt O60896+P30988) (assay: Amylin receptor assay, method A (CRE-luciferase reporter, BHK cells)). Conditions: method A, absence of HSA; read-out: hAMYR3 Potency, no HSA, EC50.
T3 construct: host or cells: BHK cells (Hollex-1 line expressing hCTR(a) and CRE-Luc), further transfected with human RAMP3
T3 sequence (P30988 25-474): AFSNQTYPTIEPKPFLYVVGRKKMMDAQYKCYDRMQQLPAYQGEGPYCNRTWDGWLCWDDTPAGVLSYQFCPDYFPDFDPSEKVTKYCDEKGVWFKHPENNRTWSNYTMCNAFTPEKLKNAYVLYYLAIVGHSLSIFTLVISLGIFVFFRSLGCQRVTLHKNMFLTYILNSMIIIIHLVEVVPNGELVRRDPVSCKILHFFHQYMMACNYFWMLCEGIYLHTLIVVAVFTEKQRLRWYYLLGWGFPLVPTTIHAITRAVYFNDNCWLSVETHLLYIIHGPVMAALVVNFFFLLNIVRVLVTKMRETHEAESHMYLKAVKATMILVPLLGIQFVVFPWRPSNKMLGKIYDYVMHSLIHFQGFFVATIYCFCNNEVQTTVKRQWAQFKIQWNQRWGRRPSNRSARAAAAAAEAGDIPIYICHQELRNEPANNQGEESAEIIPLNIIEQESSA
T3 sequence (O60896 24-148): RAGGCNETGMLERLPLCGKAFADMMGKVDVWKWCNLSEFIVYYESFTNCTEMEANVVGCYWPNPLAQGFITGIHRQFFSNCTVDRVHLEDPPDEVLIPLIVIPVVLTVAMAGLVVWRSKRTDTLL
Assay type: cell-based
Procedure: as §1
It is thus possible to measure hAMYR3 activity using a CRE-luciferase reporter gene introduced into Baby Hamster Kidney (BHK) cells co-expressing the hAMYR3.
The cell line was further transfected with human receptor modifying protein 3 (RAMP3) using standard methods.
After centrifugation, the cell pellet was resuspended and diluted to approximately 2.5-4.0×10^6 (2.5E+6 to 4.0E+6) cells/mL in Recovery™ Cell Culture Freezing Medium (Gibco, 12648-010). Cells were aliquoted and stored at −180° C. until use.
as §2, with “15630-056) and” for “15630-056),”, “either with or without” for “and”, “24040-032) and” for “24040-032)”, “with” for “with HSA”
The plate was incubated over night at 37° C. in 5% CO2. […] Luminescence was detected on a luminescence plate reader e.g., a Synergy 2 (BioTek).
Substance “Y[Aib]EGTFTSDYSILLEEQAAREFIEWLLAGGPSK([AEEA-AEEA-γGlu-C18 diacid])GEASELSTAALGRLSAELHYLATLPRTETGSGSP-NH2 [Compound 29]” has an EC50 of 3.09 pM. For “Y[Aib]EGTFTSDYSILLEEQAAREFIEWLLAGGPSK([AEEA-AEEA-γGlu-C18 diacid])GEASELSTAQLGRLSAELHRLATLPRTETGSGSP-NH2 [Compound 27]”, the EC50 was 3.82 pM. For “Y[Aib]EGTFTSDYSILLEEQAAREFIEWLLAGGPSK([AEEA-AEEA-γGlu-C18 diacid])GEASHLSTAQTQRLSAELHELATLPRTETGSGSP-NH2 [Compound 34]”, the EC50 was 6.81 pM. In the case of “Y[Aib]EGTFTSDYSILLEEQAAREFIEWLLAGGPSK([AEEA-AEEA-γGlu-C18 diacid])GGGGEGGGEGEASHLSTAQTQRLSAELHELATLPRTETGSGSP-NH2 [Compound 40]”, the EC50 is reported as 5.49 pM.
